# Target: Full length KDM2B (Homo sapiens (Human), UniProt Q8NHM5)
# Experiment: KDM2B TR-FRET Assay for Determining Inhibitor IC50
# Assay type: biochemical
# Settings: TR-FRET (HTRF), biotin-H3K36me2 peptide substrate
# Source text: KDM2B TR-FRET Assay for Determining Inhibitor IC50
# The KDM2B TR-FRET Assay described above represents an additional embodiment of the invention.
# Chain of Full length KDM2B (Q8NHM5 whole entry): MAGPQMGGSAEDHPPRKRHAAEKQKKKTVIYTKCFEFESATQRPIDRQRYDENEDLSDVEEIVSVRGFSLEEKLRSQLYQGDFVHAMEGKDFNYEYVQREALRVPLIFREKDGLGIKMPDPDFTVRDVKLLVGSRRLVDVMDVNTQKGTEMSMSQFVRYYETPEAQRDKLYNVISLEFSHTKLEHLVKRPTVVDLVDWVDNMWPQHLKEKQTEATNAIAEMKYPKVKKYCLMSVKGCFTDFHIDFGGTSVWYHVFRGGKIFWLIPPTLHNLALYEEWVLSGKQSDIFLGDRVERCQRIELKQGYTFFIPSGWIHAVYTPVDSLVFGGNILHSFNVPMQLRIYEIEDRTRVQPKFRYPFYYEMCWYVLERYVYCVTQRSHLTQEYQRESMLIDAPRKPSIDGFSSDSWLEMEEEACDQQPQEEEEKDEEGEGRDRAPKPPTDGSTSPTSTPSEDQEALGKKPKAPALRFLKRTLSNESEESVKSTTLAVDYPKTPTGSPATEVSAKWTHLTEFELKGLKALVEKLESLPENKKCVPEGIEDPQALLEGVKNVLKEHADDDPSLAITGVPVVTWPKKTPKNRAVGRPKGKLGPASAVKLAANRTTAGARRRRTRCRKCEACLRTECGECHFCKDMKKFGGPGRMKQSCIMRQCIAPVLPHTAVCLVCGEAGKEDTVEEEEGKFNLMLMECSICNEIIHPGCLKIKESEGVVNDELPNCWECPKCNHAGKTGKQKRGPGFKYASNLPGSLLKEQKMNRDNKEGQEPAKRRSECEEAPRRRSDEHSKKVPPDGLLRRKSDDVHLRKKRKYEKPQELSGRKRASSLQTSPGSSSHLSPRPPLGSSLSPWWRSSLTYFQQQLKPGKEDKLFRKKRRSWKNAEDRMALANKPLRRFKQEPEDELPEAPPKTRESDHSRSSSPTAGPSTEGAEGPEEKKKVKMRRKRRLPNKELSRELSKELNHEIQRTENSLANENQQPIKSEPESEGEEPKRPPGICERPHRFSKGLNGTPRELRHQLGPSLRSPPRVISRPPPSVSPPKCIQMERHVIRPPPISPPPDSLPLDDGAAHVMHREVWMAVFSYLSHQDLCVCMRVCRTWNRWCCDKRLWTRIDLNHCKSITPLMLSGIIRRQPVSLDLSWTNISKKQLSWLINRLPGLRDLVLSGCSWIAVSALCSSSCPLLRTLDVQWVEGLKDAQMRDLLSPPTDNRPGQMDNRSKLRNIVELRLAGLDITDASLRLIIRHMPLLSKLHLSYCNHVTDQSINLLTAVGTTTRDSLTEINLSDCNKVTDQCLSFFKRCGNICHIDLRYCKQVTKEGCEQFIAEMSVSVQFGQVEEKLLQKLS
row,IC50,SMILES
1,5.45 nM,"CCN1CCN(C2=NCCN2S(=O)(=O)c2ccc(OC)cc2)CC1 [Example 116, 1-ethyl-4-[1-(4-methoxyphenyl)sulfonyl-4,5-dihydroimidazol-2-yl]piperazine]"
2,3.76 nM,"CCN1CCN(C2=NCCN2S(=O)(=O)c2ccc(C)cc2)CC1 [Example 117, 1-ethyl-4-[1-(p-tolylsulfonyl)-4,5-dihydroimidazol-2-yl]piperazine]"
3,1.02 nM,"CCN1CCN(C2=NCCN2S(=O)(=O)c2c(Cl)cccc2Cl)CC1 [Example 118, 1-[1-(2,6-dichlorophenyl)sulfonyl-4,5-dihydroimidazol-2-yl]-4-ethyl-piperazine]"
4,11.4 nM,"CCN1CCN(C2=NCCN2S(=O)(=O)c2cnn(CC)c2C)CC1 [Example 119, 1-ethyl-4-[1-(1-ethyl-5-methyl-pyrazol-4-yl)sulfonyl-4,5-dihydroimidazol-2-yl]piperazine]"
5,13.3 nM,"CCN1CCN(C2=NCCN2S(=O)(=O)c2cccc3nonc23)CC1 [Example 120, 4-[[2-(4-ethylpiperazin-1-yl)-4,5-dihydroimidazol-1-yl]sulfonyl]-2,1,3-benzoxadiazole]"

# Continued, molecule first:
row,SMILES,IC50
1,"CCN1CCN(C2=NCCN2S(=O)(=O)c2ccc(F)cc2F)CC1 [Example 109, 1-[1-(2,4-difluorophenyl)sulfonyl-4,5-dihydroimidazol-2-yl]-4-ethyl-piperazine]",6.33 nM
2,"CCN1CCN(C2=NCCN2S(=O)(=O)c2ccc3ccccc3c2)CC1 [Example 110, 1-ethyl-4-[1-(2-naphthylsulfonyl)-4,5-dihydroimidazol-2-yl]piperazine]",0.998 nM
3,"CCN1CCN(C2=NCCN2S(=O)(=O)c2ccccc2OC)CC1 [Example 111, 1-ethyl-4-[1-(2-methoxyphenyl)sulfonyl-4,5-dihydroimidazol-2-yl]piperazine]",13.3 nM
4,"CCN1CCN(C2=NCCN2S(=O)(=O)c2ccccc2C#N)CC1 [Example 112, 2-[[2-(4-ethylpiperazin-1-yl)-4,5-dihydroimidazol-1-yl]sulfonyl]benzonitrile]",9.81 nM
5,"CCN1CCN(C2=NCCN2S(=O)(=O)c2cccc(Cl)c2)CC1 [Example 113, 1-[1-(3-chlorophenyl)sulfonyl-4,5-dihydroimidazol-2-yl]-4-ethyl-piperazine]",9.06 nM
6,"CCN1CCN(C2=NCCN2S(=O)(=O)c2ccccc2Cl)CC1 [Example 114, 1-[1-(2-chlorophenyl)sulfonyl-4,5-dihydroimidazol-2-yl]-4-ethyl-piperazine]",2.81 nM
7,"CCN1CCN(C2=NCCN2S(=O)(=O)c2cccc(OC)c2)CC1 [Example 115, 1-ethyl-4-[1-(3-methoxyphenyl)sulfonyl-4,5-dihydroimidazol-2-yl]piperazine]",3.57 nM
